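Compound exposure: 48 hours, 5 concentrations, 96-well plates. At the GI50, growth is halved.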 Activity calls are given as the source filed them. Rule as the data show it: active = GI50 up to about 1.1 µM and inactive = higher.
Columns and labels:
Assay in all cases: NCI anticancer screen, dose series, 48 h
HOP-92 = system: HOP-92
DMS-114 = system: DMS-114
SN12C = system: SN12C
M19-MEL = system: M19-MEL
SW-620 = system: SW-620
HOP-18 = system: HOP-18
OVCAR-3 = system: OVCAR-3
SK-MEL-2 = system: SK-MEL-2
NCI-H522 = system: NCI-H522
HCC 2998 = system: HCC 2998
UO-31 = system: UO-31
UACC-62 = system: UACC-62
SK-MEL-5 = system: SK-MEL-5
OVCAR-8 = system: OVCAR-8
CCRF-CEM = system: CCRF-CEM
K562 = system: K562
ACHN = system: ACHN
DMS-273 = system: DMS-273
NCI-H23 = system: NCI-H23
MOLT-4 = system: MOLT-4
A549 = system: A549
M14 = system: M14
LXFL 529 = system: LXFL 529
Malme-3M = system: Malme-3M
786-0 = system: 786-0
DLD-1 = system: DLD-1
HL-60 = system: HL-60
HCT-15 = system: HCT-15
RXF 393 = system: RXF 393
OVCAR-4 = system: OVCAR-4
U-251 = system: U-251
RPMI-8226 = system: RPMI-8226
KM-20L2 = system: KM-20L2
IGROV-1 = system: IGROV-1
SNB-19 = system: SNB-19
OVCAR-5 = system: OVCAR-5
SF-268 = system: SF-268
KM12 = system: KM12
NCI-H460 = system: NCI-H460
HOP-62 = system: HOP-62
HT-29 = system: HT-29
LOX IMVI = system: LOX IMVI
COLO 205 = system: COLO 205
SNB-75 = system: SNB-75
SK-MEL-28 = system: SK-MEL-28
SK-OV-3 = system: SK-OV-3
TK-10 = system: TK-10
SF-539 = system: SF-539
EKVX = system: EKVX
UACC-257 = system: UACC-257
SF-295 = system: SF-295
CAKI-1 = system: CAKI-1
NCI-H226 = system: NCI-H226
HCT-116 = system: HCT-116
SNB-78 = system: SNB-78
SR = system: SR
A498 = system: A498

For `C/C=C/CC(C)[C@@H](O)[C@H](NC)C(=O)O` (some centres not stated), the GI50 (HOP-92) was > 100 µM (inactive), the GI50 (DMS-114) was > 100 µM (inactive) and the GI50 (SN12C) was > 100 µM (inactive). The GI50 (M19-MEL) was > 100 µM (inactive), the GI50 (SW-620) was > 100 µM (inactive) and the GI50 (HOP-18) was > 100 µM (inactive). The GI50 (OVCAR-3) was > 100 µM (inactive), the GI50 (SK-MEL-2) was > 100 µM (inactive) and the GI50 (NCI-H522) was > 100 µM (inactive). For the same compound, the GI50 (HCC 2998) was > 100 µM (inactive), the GI50 (UO-31) was > 100 µM (inactive) and the GI50 (UACC-62) was > 100 µM (inactive). The GI50 (SK-MEL-5) was > 100 µM (inactive), the GI50 (OVCAR-8) was > 100 µM (inactive) and the GI50 (CCRF-CEM) was > 100 µM (inactive). For the same compound, the GI50 (K562) was > 100 µM (inactive), the GI50 (ACHN) was > 100 µM (inactive) and the GI50 (DMS-273) was > 100 µM (inactive). The GI50 (NCI-H23) was > 100 µM (inactive), the GI50 (MOLT-4) was > 100 µM (inactive) and the GI50 (A549) was > 100 µM (inactive). The GI50 (M14) was > 100 µM (inactive), the GI50 (LXFL 529) was > 100 µM (inactive) and the GI50 (Malme-3M) was > 100 µM (inactive). The GI50 (786-0) was > 100 µM (inactive), the GI50 (DLD-1) was > 100 µM (inactive) and the GI50 (HL-60) was > 100 µM (inactive). For the same compound, the GI50 (HCT-15) was > 100 µM, the GI50 (RXF 393) was > 100 µM (inactive) and the GI50 (OVCAR-4) was > 100 µM (inactive). The GI50 (U-251) was > 100 µM (inactive), the GI50 (RPMI-8226) was > 100 µM (inactive) and the GI50 (KM-20L2) was > 100 µM (inactive). The GI50 (IGROV-1) was > 100 µM (inactive), the GI50 (SNB-19) was > 100 µM (inactive) and the GI50 (OVCAR-5) was > 100 µM (inactive). The GI50 (SF-268) was > 100 µM (inactive), the GI50 (KM12) was > 100 µM (inactive) and the GI50 (NCI-H460) was > 100 µM (inactive). For the same compound, the GI50 (HOP-62) was > 100 µM (inactive), the GI50 (HT-29) was > 100 µM (inactive) and the GI50 (LOX IMVI) was > 100 µM (inactive). The GI50 (COLO 205) was > 100 µM (inactive), the GI50 (SNB-75) was > 100 µM (inactive) and the GI50 (SK-MEL-28) was > 100 µM (inactive). For the same compound, the GI50 (SK-OV-3) was > 100 µM (inactive), the GI50 (TK-10) was > 100 µM (inactive) and the GI50 (SF-539) was > 100 µM (inactive). The GI50 (EKVX) was > 100 µM (inactive), the GI50 (UACC-257) was > 100 µM (inactive) and the GI50 (SF-295) was > 100 µM (inactive). The GI50 (CAKI-1) was > 100 µM (inactive).
For `Cc1cc(C)c2c(c1)CSCc1cc(C)cc(C)c1-2`, the GI50 (NCI-H226) was 38.8 µM (inactive), the GI50 (HCT-116) was 22 µM (inactive) and the GI50 (DMS-114) was 25.2 µM (inactive). The GI50 (SN12C) was 35.2 µM (inactive), the GI50 (M19-MEL) was 25.1 µM (inactive) and the GI50 (SW-620) was 71.8 µM (inactive). For the same compound, the GI50 (HOP-18) was 37.6 µM (inactive), the GI50 (OVCAR-3) was 30.3 µM (inactive) and the GI50 (SK-MEL-2) was 21.3 µM (inactive). The GI50 (NCI-H522) was 22.5 µM (inactive), the GI50 (HCC 2998) was 35.2 µM (inactive) and the GI50 (UO-31) was 39.4 µM (inactive). The GI50 (UACC-62) was 23.4 µM (inactive), the GI50 (SK-MEL-5) was 21.6 µM (inactive) and the GI50 (OVCAR-8) was 33 µM (inactive). For the same compound, the GI50 (CCRF-CEM) was 23 µM (inactive), the GI50 (K562) was 32.8 µM (inactive) and the GI50 (ACHN) was 35.4 µM (inactive). For the same compound, the GI50 (DMS-273) was 58.1 µM (inactive), the GI50 (SNB-78) was 25.1 µM (inactive) and the GI50 (NCI-H23) was 36.9 µM (inactive). The GI50 (MOLT-4) was 21.1 µM (inactive), the GI50 (A549) was 30.9 µM (inactive) and the GI50 (M14) was 22.6 µM (inactive). For the same compound, the GI50 (SR) was 23.9 µM (inactive), the GI50 (LXFL 529) was 57.5 µM (inactive) and the GI50 (Malme-3M) was 18.1 µM (inactive). The GI50 (786-0) was 32.5 µM (inactive), the GI50 (DLD-1) was 33.3 µM (inactive) and the GI50 (HL-60) was 21.1 µM (inactive). The GI50 (HCT-15) was 32.4 µM, the GI50 (RXF 393) was 39.4 µM (inactive) and the GI50 (OVCAR-4) was 39.2 µM (inactive). The GI50 (U-251) was 19.8 µM (inactive), the GI50 (RPMI-8226) was 22.9 µM (inactive) and the GI50 (KM-20L2) was 35.1 µM (inactive). For the same compound, the GI50 (IGROV-1) was 34.1 µM (inactive), the GI50 (SNB-19) was 44.8 µM (inactive) and the GI50 (OVCAR-5) was 29.9 µM (inactive). The GI50 (SF-268) was 38.7 µM (inactive), the GI50 (KM12) was 42.6 µM (inactive) and the GI50 (NCI-H460) was 24.2 µM (inactive). The GI50 (HOP-62) was 27.6 µM (inactive), the GI50 (HT-29) was 19.3 µM (inactive) and the GI50 (LOX IMVI) was 17.3 µM (inactive). The GI50 (COLO 205) was 26.5 µM (inactive), the GI50 (SNB-75) was 37.3 µM (inactive) and the GI50 (SK-MEL-28) was 1.72 µM (inactive). For the same compound, the GI50 (SK-OV-3) was 88.9 µM (inactive), the GI50 (TK-10) was > 100 µM (inactive) and the GI50 (EKVX) was 24.2 µM (inactive). The GI50 (UACC-257) was 24.8 µM (inactive), the GI50 (SF-295) was 25.6 µM (inactive) and the GI50 (CAKI-1) was 26.2 µM (inactive). The GI50 (A498) was 28.1 µM (inactive).
